Laboratory results: the supplement of paper PMC12532568

Test system: Danio rerio larvae Tg(actc1b:ZsGreen-LC3), 3 dpf
Assay: LC3 puncta relative area vs vehicle (mean) (log2 fold change); higher = more autophagy
Conditions: treatment time 16 h
Summary of the method: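 Compounds in DMSO were given at 10, 50, 100 or 250 µM for 16 h to ZsGreen-LC3 muscle-reporter zebrafish larvae housed three per well. The larvae were imaged under tricaine both before and after a 4 h exposure to 100 mM NH4Cl, with 20× confocal z-stacks max-projected and background-subtracted. Autophagy was taken as LC3 puncta area over body area and expressed as mean log2 fold change relative to vehicle, with 4–21 larvae per condition and toxic doses and displaced larvae excluded.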

C/C1=C2/[N-]C([C@H](CC(N)=O)[C@@]2(C)CCC(=O)NCC(C)OP(=O)([O-])OC2C(O)[C@@H](n3cnc4cc(C)c(C)cc43)O[C@@H]2CO)[C@]2(C)N=C(/C(C)=C3N=C(/C=C4N=C1[C@@H](CCC(N)=O)C\4(C)C)[C@@H](CCC(N)=O)[C@]\3(C)CC(N)=O)[C@@H](CCC(N)=O)[C@]2(C)CC(N)=O.[CH2-]C1O[C@H](n2cnc3c(N)ncnc32)[C@@H](O)[C@H]1O.[Co+3] (stereo partly drawn) [Coenzyme B12]
LC3 puncta (log2)
Conditions | 10 µM | 50 µM | 100 µM | 250 µM
NH4Cl: + NH4Cl | 0.47 | 0.446 | 0.394 | 0.833
NH4Cl: - NH4Cl | 0.178 | -0.299 | 0.292 | 0.281
